From US12673947B2 (Cytosinlab Therapeutics Co., Ltd., priority 2020, dated 2026)

Columns and labels:
MV4;11 cells = experiment: MV4;11 in vitro inhibition of proliferation assay (CellTiter-Glo, 72 hours); assay type: cell-based; details: Homo sapiens, MV4-11, 72 h, IC50 class, read-out: Inhibitory activity of cell proliferation MV4;11
Outline: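 IC50 came from four-parameter fitting of inhibition rates, based on CellTiter-Glo luminescence after 72 hours at 37° C. Each well held 2000 MV4;11 cells grown in IMDM with 10% serum. Compounds formed a nine-point, threefold DMSO series starting at 10 uM, tested in triplicate at 0.3% final DMSO.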

FLT3 = biological target: T1, FLT3 (Homo sapiens, UniProt P36888); experiment: FLT3 kinase in vitro inhibitory activity experiment (Caliper mobility shift, conversion rate); assay type: biochemical; details: IC50 class, read-out: Enzyme activity FLT3
T1 construct: purchased Carna 08-145
T1 sequence (P36888 27-993): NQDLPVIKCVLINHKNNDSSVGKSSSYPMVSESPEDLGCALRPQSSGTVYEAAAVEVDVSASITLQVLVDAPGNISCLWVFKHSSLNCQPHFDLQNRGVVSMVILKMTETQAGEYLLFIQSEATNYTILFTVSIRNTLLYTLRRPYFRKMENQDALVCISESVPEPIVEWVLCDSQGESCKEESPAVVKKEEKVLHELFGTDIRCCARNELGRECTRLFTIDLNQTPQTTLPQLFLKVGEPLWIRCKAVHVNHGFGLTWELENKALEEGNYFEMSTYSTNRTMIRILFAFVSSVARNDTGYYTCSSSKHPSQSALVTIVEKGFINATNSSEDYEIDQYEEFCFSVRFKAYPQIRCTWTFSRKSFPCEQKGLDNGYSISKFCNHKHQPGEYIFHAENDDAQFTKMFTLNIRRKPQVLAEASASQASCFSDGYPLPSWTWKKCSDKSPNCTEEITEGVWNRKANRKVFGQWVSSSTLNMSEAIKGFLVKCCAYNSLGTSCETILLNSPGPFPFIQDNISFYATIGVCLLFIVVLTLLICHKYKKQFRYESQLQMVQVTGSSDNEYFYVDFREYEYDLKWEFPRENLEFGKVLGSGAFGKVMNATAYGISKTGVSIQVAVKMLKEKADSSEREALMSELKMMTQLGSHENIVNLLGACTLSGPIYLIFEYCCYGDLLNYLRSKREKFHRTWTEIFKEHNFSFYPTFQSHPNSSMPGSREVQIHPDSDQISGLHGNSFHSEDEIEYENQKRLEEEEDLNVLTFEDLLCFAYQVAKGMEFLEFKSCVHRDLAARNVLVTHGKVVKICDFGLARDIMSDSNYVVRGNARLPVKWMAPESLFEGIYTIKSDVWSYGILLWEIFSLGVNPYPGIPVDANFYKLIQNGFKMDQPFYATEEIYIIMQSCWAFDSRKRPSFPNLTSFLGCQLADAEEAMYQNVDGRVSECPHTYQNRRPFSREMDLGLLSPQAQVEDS
Outline: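 Tested in single wells as ten 3-fold dilutions of a 1 μM initial stock. Compound and FLT3 stood 10 min at room temperature; ATP with Kinase substrate 2 was then added for 30 min at room temperature and the reaction stopped. Conversion was measured by Caliper mobility shift, and inhibition was normalised to control-well conversion.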

IC50 (MV4;11 cells) | IC50 (FLT3) | Structure (SMILES)
≤ 10 nM | ≤ 10 nM | [2H]C([2H])([2H])C([2H])(N1CCC(n2cc(-c3cnc(N)c4nc(CC)c(N[C@@H]5CC[C@H](O)C5)nc34)cn2)CC1)C([2H])([2H])[2H] [Compound 222]
≤ 10 nM | ≤ 10 nM | CCc1nc2c(N)ncc(-c3cnn(C4CCN(C)CC4)c3)c2nc1N[C@H]1CCOC1 [Compound 223]
≤ 10 nM | ≤ 10 nM | CCc1nc2c(N)ncc(-c3cnn(C4CCN(CC)CC4)c3)c2nc1N[C@H]1CCOC1 [Compound 224]
≤ 10 nM | ≤ 10 nM | CCc1nc2c(N)ncc(-c3cnn(C4CCN(C(C)C)CC4)c3)c2nc1N[C@H]1CCOC1 [Compound 225]
≤ 10 nM | ≤ 10 nM | CCc1nc2c(N)ncc(-c3cnn(C4CCN(C(CC)CC)CC4)c3)c2nc1N[C@H]1CCOC1 [Compound 226]
≤ 10 nM | ≤ 10 nM | CCc1nc2c(N)ncc(-c3cnn(C4CCN(C(C)CC)CC4)c3)c2nc1N[C@H]1CCOC1 (some centres unmarked) [Compound 227]
10 to 100 nM | ≤ 10 nM | CCc1nc2c(N)ncc(-c3cnn(C4CCN(C5CC5)CC4)c3)c2nc1N[C@H]1CCOC1 [Compound 228]
≤ 10 nM | ≤ 10 nM | CCc1nc2c(N)ncc(-c3cnn(C4CCN(C(CC)CC)CC4)c3)c2nc1NC1CCOCC1 [Compound 232, 3-Ethyl-8-(1-(1-(pent-3-yl)piperidin-4-yl)-1H-pyrazol-4-yl)-N2-(tetrahydro-2H-pyran-4-yl)pyridino [3,4-b]pyrazine-2,5-diamine]
≤ 10 nM | ≤ 10 nM | CCc1nc2c(N)ncc(-c3cnn(C4CCN(CC(C)(C)O)CC4)c3)c2nc1NC1CCOCC1 [Compound 233]
≤ 10 nM | ≤ 10 nM | CCc1nc2c(N)ncc(-c3cnn(C4CCN(C(C)C)CC4)c3)c2nc1NC1CCOCC1 [Compound 234]
≤ 10 nM | ≤ 10 nM | CCc1nc2c(N)ncc(-c3cnn(C4CCN(C5CCN(CC)CC5)CC4)c3)c2nc1NC1CCOCC1 [Compound 235]
10 to 100 nM | ≤ 10 nM | CCc1nc2c(N)ncc(-c3cnn(C4CCN(C5CCN(C(C)C)CC5)CC4)c3)c2nc1NC1CCOCC1 [Compound 236]
10 to 100 nM | ≤ 10 nM | CCc1nc2c(N)ncc(-c3cnn(C4CCN(C5CCOCC5)CC4)c3)c2nc1NC1CCOCC1 [Compound 237]
10 to 100 nM | ≤ 10 nM | CCc1nc2c(N)ncc(-c3cnn(C4CCN(C5COC5)CC4)c3)c2nc1NC1CCOCC1 [Compound 238]
10 to 100 nM | ≤ 10 nM | CCc1nc2c(N)ncc(-c3cnn(C4CCN(C5CCN(CCO)CC5)CC4)c3)c2nc1NC1CCOCC1 [Compound 239]
10 to 100 nM | ≤ 10 nM | CCc1nc2c(N)ncc(-c3cnn(C4CCN(C5CCN(CCOC)CC5)CC4)c3)c2nc1NC1CCOCC1 [Compound 240]
10 to 100 nM | ≤ 10 nM | CCc1nc2c(N)ncc(-c3cnn(C4CCN(C5CCN(CC(C)C)CC5)CC4)c3)c2nc1NC1CCOCC1 [Compound 241]
10 to 100 nM | ≤ 10 nM | CCc1nc2c(N)ncc(-c3cnn(C4CCN(C5CN(C)C5)CC4)c3)c2nc1NC1CCOCC1 [Compound 242]
≤ 10 nM | ≤ 10 nM | CCc1nc2c(N)ncc(-c3cnn(C4CCN(C5CCN(C6CC6)CC5)CC4)c3)c2nc1NC1CCOCC1 [Compound 243]
10 to 100 nM | ≤ 10 nM | CCc1nc2c(N)ncc(-c3cnn(C4CCN(C5CCN(CC)CC5)CC4)c3)c2nc1N[C@H]1CCOC1 [Compound 244]

IC50 (MV4;11 cells) | IC50 (FLT3) | Structure (SMILES)
≤ 10 nM | ≤ 10 nM | CCc1nc2c(N)ncc(-c3cnn(C4CCN(C5CCN(CC)CC5)CC4)c3)c2nc1N[C@@H]1CC[C@H](O)C1 [Compound 245]
≤ 10 nM | ≤ 10 nM | CCc1nc2c(N)ncc(-c3cnn(C4CCN(C5CCN(CC)CC5)CC4)c3)c2nc1NC1CCCC(O)C1 (centres unmarked) [Compound 246, 3-((5-amino-3-ethyl-8-(1-(1′-ethyl-[1,4′-bipiperidine]-4-yl)-1H-pyrazol-4-yl)pyridino[3,4-b]pyrazine-2-yl)amino)cyclohexan-1-ol]
10 to 100 nM | ≤ 10 nM | CCc1nc2c(N)ncc(-c3cnn(C4CCN(C5CCN(C)CC5)CC4)c3)c2nc1NC1CCOC1 (centres unmarked) [Compound 247]
10 to 100 nM | ≤ 10 nM | CCc1nc2c(N)ncc(-c3cnn(C4CCN(C5CCN(C)CC5)CC4)c3)c2nc1N[C@H]1CCOC1 [Compound 248]
≤ 10 nM | ≤ 10 nM | CCc1nc2c(N)ncc(-c3cnn(C4CCN(C5CCN(C)CC5)CC4)c3)c2nc1N[C@@H]1CC[C@H](O)C1 [Compound 249]
10 to 100 nM | ≤ 10 nM | CCc1nc2c(N)ncc(-c3ccc(N4CCC(N5CCN(C)CC5)CC4)c(OC)c3)c2nc1N[C@@H]1CCOC1 [Compound 251]
10 to 100 nM | ≤ 10 nM | CCc1nc2c(N)ncc(-c3ccc(N4CCC(N5CCN(C)CC5)CC4)c(OC)c3)c2nc1N[C@H]1CCOC1 [Compound 252]
≤ 10 nM | ≤ 10 nM | CCc1nc2c(N)ncc(-c3ccc(N4CCC(N5CCN(CC)CC5)CC4)c(OC)c3)c2nc1N[C@@H]1CC[C@H](O)C1 [Compound 253]
≤ 10 nM | ≤ 10 nM | CCc1nc2c(N)ncc(-c3ccc(N4CCC(N5CCN(C)CC5)CC4)c(OC)c3)c2nc1N[C@@H]1CCC[C@H](O)C1 [Compound 257]
≤ 10 nM | ≤ 10 nM | CCc1nc2c(N)ncc(-c3cnn(C4CCN(C(C)C)CC4)c3)c2nc1N[C@@H]1CCC[C@H](O)C1 [Compound 260]
10 to 100 nM | ≤ 10 nM | CCc1nc2c(N)ncc(-c3cnn(C4CCN(C)CC4)c3)c2nc1N1CCC(O)C1 (centres unmarked) [Compound 261]
10 to 100 nM | ≤ 10 nM | CCc1nc2c(N)ncc(-c3ccc(N4C[C@@H](C)O[C@@H](C)C4)c(OC)c3)c2nc1N[C@@H]1CC[C@H](O)C1 [Compound 265]
10 to 100 nM | ≤ 10 nM | CCc1nc2c(N)ncc(-c3ccc(N4CC5CCC(C4)O5)c(OC)c3)c2nc1N[C@@H]1CC[C@H](O)C1 [Compound 266]
10 to 100 nM | ≤ 10 nM | CCc1nc2c(N)ncc(-c3ccc(N4C[C@H](C)O[C@@H](C)C4)c(OC)c3)c2nc1N[C@@H]1CC[C@H](O)C1 [Compound 267]
10 to 100 nM | ≤ 10 nM | CCc1nc2c(N)ncc(-c3ccc(N4CCC(N5CCN(C)CC5)CC4)c(C(F)F)c3)c2nc1NC1CCOCC1 [Compound 268]
≤ 10 nM | ≤ 10 nM | CCc1nc2c(N)ncc(-c3cnn(-c4ncncc4C)c3)c2nc1N[C@@H]1CC[C@H](O)C1 [Compound 269, (1S,3R)-3-((5-amino-3-ethyl-8-(1-(5-methylpyrimidin-4-yl)-1H-pyrazol-4-yl)pyridino[3,4-b]pyrazin-2-yl)amino)cyclopentan-1-ol]
10 to 100 nM | ≤ 10 nM | CCc1nc2c(N)ncc(-c3cnn(-c4cc(C)nc(C)n4)c3)c2nc1N[C@@H]1CC[C@H](O)C1 [Compound 270]
10 to 100 nM | ≤ 10 nM | CCc1nc2c(N)ncc(-c3cnn(-c4cccc(C)n4)c3)c2nc1N[C@@H]1CC[C@H](O)C1 [Compound 271]
≤ 10 nM | ≤ 10 nM | CCc1nc2c(N)ncc(-c3cnn(-c4ccnc(C)c4)c3)c2nc1N[C@@H]1CC[C@H](O)C1 [Compound 272]
≤ 10 nM | ≤ 10 nM | CCc1nc2c(N)ncc(-c3cnn(-c4ccn(C(C)C)c(=O)c4)c3)c2nc1N[C@@H]1CC[C@H](O)C1 [Compound 273]
